Measured values as given in ChEMBL document CHEMBL4806968, “Hipk inhibitors and methods of use thereof” (2020).
Values belong to the compound of their own block, whether it stands above or below them.

Columns and labels:
[1] = target: Tyrosine-protein kinase Lyn (Homo sapiens) (UniProt P07948); assay: Inhibition of LYNB (unknown origin) at 0.5 uM relative to control
Homo sapiens = species: Homo sapiens; assay: Inhibition of LYNA (unknown origin) at 0.5 uM relative to control
[2] = target: Mitogen-activated protein kinase kinase kinase 9 (Homo sapiens) (UniProt P80192); assay: Inhibition of MLK1 (unknown origin) at 0.5 uM relative to control
[3] = target: Ephrin type-A receptor 2 (Homo sapiens) (UniProt P29317); assay: Inhibition of EPHA2 (unknown origin) at 0.5 uM relative to control
[4] = target: Non-receptor tyrosine-protein kinase TNK1 (Homo sapiens) (UniProt Q13470); assay: Inhibition of TNK1 (unknown origin) at 0.5 uM relative to control
[5] = target: Mitogen-activated protein kinase kinase kinase 10 (Homo sapiens) (UniProt Q02779); assay: Inhibition of MLK2 (unknown origin) at 0.5 uM relative to control
[6] = target: Tyrosine-protein kinase JAK1 (Homo sapiens) (UniProt P23458); assay: Inhibition of JAK1 (unknown origin) at 0.5 uM relative to control
[7] = target: Dual specificity mitogen-activated protein kinase kinase 4 (Homo sapiens) (UniProt P45985); assay: Inhibition of MAP2K4 (unknown origin) at 0.5 uM relative to control
[8] = target: Tyrosine-protein kinase JAK2 (Homo sapiens) (UniProt O60674); assay: Inhibition of JAK2 (unknown origin) at 0.5 uM relative to control
[9] = target: Serine/threonine-protein kinase PLK4 (Homo sapiens) (UniProt O00444); assay: Inhibition of PLK4 (unknown origin) at 0.5 uM relative to control
[10] = target: Ephrin type-B receptor 3 (Homo sapiens) (UniProt P54753); assay: Inhibition of EPHB3 (unknown origin) at 0.5 uM relative to control
[11] = target: Platelet-derived growth factor receptor alpha (Homo sapiens) (UniProt P16234); assay: Inhibition of PDGFR-alpha (unknown origin) at 0.5 uM relative to control
[12] = target: Eukaryotic translation initiation factor 2-alpha kinase 3 (Homo sapiens) (UniProt Q9NZJ5); assay: Inhibition of PERK (unknown origin) at 0.5 uM relative to control
[13] = target: Serine/threonine-protein kinase MARK1 (Homo sapiens) (UniProt Q9P0L2); assay: Inhibition of MARK1 (unknown origin) at 0.5 uM relative to control
[14] = target: Inhibitor of nuclear factor kappa-B kinase subunit epsilon (Homo sapiens) (UniProt Q14164); assay: Inhibition of IKK-epsilon (unknown origin) at 0.5 uM relative to control
[15] = target: Proto-oncogene tyrosine-protein kinase Src (Homo sapiens) (UniProt P12931); assay: Inhibition of SRC (unknown origin) at 0.5 uM relative to control

Sequence of Mitogen-activated protein kinase kinase kinase 9 (Homo sapiens) (P80192 whole entry, looked up): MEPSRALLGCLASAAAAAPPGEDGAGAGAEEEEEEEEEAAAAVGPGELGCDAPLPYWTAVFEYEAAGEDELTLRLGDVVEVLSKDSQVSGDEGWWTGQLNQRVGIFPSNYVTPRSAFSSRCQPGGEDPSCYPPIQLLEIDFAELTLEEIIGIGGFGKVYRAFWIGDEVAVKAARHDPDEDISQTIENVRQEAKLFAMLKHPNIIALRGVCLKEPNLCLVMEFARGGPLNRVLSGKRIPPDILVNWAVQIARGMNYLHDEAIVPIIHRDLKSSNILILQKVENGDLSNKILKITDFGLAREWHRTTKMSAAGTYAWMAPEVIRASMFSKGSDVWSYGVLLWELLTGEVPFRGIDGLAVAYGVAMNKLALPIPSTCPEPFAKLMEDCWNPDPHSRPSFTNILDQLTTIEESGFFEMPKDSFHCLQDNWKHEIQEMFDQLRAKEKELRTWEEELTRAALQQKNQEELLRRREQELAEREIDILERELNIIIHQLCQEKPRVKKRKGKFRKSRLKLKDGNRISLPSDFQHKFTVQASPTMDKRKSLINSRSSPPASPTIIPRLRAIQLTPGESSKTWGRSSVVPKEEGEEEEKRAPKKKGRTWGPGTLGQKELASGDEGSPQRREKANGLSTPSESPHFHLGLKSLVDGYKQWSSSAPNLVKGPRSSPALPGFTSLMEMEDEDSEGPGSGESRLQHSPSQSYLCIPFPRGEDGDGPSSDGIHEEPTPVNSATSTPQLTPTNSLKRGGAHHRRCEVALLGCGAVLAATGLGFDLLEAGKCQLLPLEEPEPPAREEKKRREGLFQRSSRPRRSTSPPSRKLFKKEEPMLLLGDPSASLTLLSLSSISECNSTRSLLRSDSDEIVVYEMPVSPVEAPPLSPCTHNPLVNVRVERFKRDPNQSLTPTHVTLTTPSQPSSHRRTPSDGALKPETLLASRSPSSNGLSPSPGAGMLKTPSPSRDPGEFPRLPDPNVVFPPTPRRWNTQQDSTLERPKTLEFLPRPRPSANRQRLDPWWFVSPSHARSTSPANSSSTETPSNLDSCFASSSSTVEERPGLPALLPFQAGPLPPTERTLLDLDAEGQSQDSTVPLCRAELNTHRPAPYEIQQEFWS
Sequence of Tyrosine-protein kinase Lyn (Homo sapiens) (P07948 2-512 limits assumed): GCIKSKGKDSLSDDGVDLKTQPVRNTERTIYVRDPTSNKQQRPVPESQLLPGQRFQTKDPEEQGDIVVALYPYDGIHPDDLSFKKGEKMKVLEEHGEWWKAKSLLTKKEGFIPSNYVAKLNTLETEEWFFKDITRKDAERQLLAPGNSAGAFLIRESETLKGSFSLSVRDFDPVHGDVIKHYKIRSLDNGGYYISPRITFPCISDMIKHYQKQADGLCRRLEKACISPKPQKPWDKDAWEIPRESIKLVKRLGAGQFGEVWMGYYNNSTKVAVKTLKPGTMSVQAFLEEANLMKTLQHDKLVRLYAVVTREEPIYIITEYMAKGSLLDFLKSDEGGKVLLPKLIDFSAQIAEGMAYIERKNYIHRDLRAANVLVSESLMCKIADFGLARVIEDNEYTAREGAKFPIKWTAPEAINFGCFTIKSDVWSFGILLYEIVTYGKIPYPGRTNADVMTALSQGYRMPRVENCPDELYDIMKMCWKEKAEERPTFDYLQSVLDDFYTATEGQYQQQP
Sequence of Ephrin type-A receptor 2 (Homo sapiens) (P29317 whole entry): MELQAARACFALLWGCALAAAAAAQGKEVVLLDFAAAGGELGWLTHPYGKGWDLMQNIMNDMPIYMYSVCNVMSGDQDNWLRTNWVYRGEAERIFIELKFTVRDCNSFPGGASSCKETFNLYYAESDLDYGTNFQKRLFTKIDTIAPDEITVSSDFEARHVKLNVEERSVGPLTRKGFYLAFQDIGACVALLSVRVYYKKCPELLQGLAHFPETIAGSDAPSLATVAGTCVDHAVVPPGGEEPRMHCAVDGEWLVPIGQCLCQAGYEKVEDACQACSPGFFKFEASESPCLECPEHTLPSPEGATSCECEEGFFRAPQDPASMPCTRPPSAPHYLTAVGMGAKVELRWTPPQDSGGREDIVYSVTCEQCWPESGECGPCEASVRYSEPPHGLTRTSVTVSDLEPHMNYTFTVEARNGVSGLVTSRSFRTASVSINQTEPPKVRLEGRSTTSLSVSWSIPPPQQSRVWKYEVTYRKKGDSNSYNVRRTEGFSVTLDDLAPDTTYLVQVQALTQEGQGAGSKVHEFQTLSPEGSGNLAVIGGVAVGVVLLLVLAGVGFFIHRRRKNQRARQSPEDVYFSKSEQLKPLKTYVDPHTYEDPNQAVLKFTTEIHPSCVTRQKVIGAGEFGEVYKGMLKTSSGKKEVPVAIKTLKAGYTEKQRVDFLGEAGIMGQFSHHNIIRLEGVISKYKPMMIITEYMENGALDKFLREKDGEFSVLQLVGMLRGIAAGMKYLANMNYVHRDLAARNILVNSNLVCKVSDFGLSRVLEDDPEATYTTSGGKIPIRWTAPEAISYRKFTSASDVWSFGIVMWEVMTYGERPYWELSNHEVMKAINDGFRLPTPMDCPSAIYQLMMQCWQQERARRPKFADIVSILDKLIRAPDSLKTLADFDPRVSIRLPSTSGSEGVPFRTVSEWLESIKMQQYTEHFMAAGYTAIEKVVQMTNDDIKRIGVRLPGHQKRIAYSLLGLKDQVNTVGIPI
Sequence of Ephrin type-B receptor 3 (Homo sapiens) (P54753 whole entry): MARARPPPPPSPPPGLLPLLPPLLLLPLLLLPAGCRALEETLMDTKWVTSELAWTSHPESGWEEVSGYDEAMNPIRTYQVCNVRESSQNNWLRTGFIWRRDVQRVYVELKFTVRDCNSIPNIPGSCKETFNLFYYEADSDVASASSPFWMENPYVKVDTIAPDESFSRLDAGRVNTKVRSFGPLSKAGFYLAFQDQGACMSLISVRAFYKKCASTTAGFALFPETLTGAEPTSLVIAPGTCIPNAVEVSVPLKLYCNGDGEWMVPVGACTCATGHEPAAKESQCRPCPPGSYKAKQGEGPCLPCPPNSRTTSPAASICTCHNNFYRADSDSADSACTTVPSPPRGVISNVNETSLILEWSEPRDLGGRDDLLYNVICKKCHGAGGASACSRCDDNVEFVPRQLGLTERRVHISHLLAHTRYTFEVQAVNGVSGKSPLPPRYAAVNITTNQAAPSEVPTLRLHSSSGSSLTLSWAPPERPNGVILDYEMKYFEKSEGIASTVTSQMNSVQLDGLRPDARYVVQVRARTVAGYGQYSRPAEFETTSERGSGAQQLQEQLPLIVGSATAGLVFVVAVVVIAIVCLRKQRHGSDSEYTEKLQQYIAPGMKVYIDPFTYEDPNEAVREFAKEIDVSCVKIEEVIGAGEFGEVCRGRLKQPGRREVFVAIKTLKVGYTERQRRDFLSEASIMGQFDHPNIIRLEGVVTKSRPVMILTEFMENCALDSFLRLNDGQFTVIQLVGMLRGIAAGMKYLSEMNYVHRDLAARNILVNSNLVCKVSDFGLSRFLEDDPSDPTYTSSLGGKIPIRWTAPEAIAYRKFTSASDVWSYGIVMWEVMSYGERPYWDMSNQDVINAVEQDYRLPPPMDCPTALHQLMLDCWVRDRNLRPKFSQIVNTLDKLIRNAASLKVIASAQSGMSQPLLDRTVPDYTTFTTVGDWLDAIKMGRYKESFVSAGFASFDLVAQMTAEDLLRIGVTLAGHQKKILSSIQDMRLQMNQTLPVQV
Sequence of Platelet-derived growth factor receptor alpha (Homo sapiens) (P16234 whole entry): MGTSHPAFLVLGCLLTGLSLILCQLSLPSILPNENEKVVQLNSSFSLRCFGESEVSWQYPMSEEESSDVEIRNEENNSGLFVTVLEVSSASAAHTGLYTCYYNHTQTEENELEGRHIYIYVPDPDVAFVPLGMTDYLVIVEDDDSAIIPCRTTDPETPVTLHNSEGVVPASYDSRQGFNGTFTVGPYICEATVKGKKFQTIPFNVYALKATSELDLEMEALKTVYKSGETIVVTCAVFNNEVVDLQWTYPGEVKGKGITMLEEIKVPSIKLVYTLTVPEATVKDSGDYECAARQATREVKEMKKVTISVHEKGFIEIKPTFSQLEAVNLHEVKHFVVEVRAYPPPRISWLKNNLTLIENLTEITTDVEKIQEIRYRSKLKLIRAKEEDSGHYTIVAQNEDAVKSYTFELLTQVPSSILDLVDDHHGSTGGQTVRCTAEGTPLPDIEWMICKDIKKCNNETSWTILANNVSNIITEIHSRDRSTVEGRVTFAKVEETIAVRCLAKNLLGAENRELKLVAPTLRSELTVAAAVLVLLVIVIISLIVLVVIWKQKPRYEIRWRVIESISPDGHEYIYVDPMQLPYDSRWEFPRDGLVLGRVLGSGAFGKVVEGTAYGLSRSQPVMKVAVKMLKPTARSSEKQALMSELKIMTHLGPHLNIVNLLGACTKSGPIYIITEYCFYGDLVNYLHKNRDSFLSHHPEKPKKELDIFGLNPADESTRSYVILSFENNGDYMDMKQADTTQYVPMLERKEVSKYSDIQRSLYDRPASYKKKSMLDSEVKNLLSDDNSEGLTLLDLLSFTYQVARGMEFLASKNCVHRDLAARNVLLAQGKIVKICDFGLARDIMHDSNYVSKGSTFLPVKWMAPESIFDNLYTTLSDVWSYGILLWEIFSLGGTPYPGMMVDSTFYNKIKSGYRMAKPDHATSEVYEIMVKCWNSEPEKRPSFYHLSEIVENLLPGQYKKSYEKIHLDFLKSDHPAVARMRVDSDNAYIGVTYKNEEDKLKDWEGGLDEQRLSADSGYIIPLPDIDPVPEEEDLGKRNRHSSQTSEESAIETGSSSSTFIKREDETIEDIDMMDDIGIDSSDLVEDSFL
Sequence of Dual specificity mitogen-activated protein kinase kinase 4 (Homo sapiens) (P45985 whole entry): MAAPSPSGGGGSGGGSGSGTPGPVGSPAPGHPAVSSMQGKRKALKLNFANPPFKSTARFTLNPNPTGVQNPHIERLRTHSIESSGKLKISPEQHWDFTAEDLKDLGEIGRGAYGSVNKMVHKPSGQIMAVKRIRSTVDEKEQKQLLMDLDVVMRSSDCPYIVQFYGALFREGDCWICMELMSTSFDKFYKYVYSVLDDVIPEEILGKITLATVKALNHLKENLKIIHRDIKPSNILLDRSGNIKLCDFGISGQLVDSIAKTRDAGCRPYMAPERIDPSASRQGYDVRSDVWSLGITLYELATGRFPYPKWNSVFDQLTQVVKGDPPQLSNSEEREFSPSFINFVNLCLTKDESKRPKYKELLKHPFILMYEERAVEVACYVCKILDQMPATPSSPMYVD

inhibition [1]: 93%
inhibition (Homo sapiens): 84%
SMILES: CNC(=O)c1cc(Oc2ccc(NC(=O)c3nc(SC)[nH]c3-c3ccc(F)cc3)cc2)ccn1

inhibition [2]: 28%
inhibition [3]: 25%
inhibition [4]: 23%
inhibition [5]: 21%
inhibition [6]: 21%
inhibition [7]: 16%
inhibition [8]: 14%
inhibition [9]: 14%
SMILES: CSc1nc(C(=O)Nc2ccc(Oc3cc4cnn(C)c4cc3Br)cc2)c(-c2ccc(F)cc2)o1

inhibition [10]: 23%
SMILES: CNC(=O)c1cc(Oc2ccc(NC(=O)c3nc(C(F)(F)F)sc3-c3ccc(F)cc3)cc2)ccn1

inhibition [11]: 44%
inhibition [12]: 64%
inhibition [13]: 44%
inhibition [14]: 34%
SMILES: CNC(=O)c1cc(Oc2ccc(NC(=O)c3nc(SC)n(CCN(C)C)c3-c3ccc(F)cc3)cc2)ccn1

inhibition [15]: 40%
SMILES: CNC(=O)c1cc(Oc2ccc(NC(=O)c3nc(SC)oc3-c3ccc(F)cc3)cc2F)ccn1
